Key:
[1] = tested on: NA activity of oseltamivir-susceptible (wild-type) H1N1 influenza virus A/Brisbane/59/2007; format: biochemical
[2] = tested on: NA activity of oseltamivir-susceptible (wild-type) H1N1 influenza virus A/Netherlands/049/2008; format: biochemical

| Compound | effect on NA activity [1] | effect on NA activity [2] |
| --- | --- | --- |
| CCN[C@H]1C[C@H](C)S(=O)(=O)c2sc(S(N)(=O)=O)cc21 [Dorzolamide, dorzolamide] | no effect | no effect |
| CCn1cc(C(=O)O)c(=O)c2ccc(C)nc21 [Nalidixic acid, nalidixic acid] | no effect | no effect |

Source: PMC4807618 (Angewandte Chemie (International ed. in English), 2016)
